Measured values from patent US20020182655A1, “Method for identifying ligands for G protein-coupled receptors” (priority 2001, published 2002).
pEC50: −log10 of the molar value.

Legend:
hGPR 3 = hGPR 3 (Homo sapiens, UniProt P46089); assay: Ca2+ FLIPR assay in HEK293 cells transiently transfected with hGPR 3; format: cell-based
Method: (§1) Transient transfections were carried out by incubating 5×10^5 HEK293 cells or 2×10^5 CHO-K1 cells in 6-well plates at 37° C. for 24 hours. The cells were then transfected with 1 to 2 μg of a vector, pcDNA 3.1, into which a GPR 3 gene was inserted by Hind III and Xba I sites, under the control of pcDNA 3.1. It is also expected that GPR 3, 6, or 12 may be cloned under control of the eukaryotic CMV promoter or of a control plasmid without corresponding cloned insert. The HEK293 cells were transfected with the aid of FuGene 6 transfection reagent (commercially available, for example from Roche Diagnostics) and the CHO cells were transfected with the aid of Lipofectamine reagent (commercially available, for example from GIBCO-BRL), in each case according to the manufacturer's instructions.
(§2) HEK293 cells were transferred to 96-well microtiter plates 24 hours after transient transfection. The cell density was 80,000 cells per well. The microtiter plates were coated with poly-D-lysine. […] The compounds to be analyzed, i.e., S1P, DHS1P, suramin, and compounds from the lipid library, were present as 2 mM stock solutions in DMSO (dimethyl sulfoxide). […]
(§3) The FLIPR was programmed such that 50 μl of the triple-concentrated suramin stock solution were added to the cells, leading to a final suramin concentration of 300 μM. Fluorescence was measured in 3 second intervals for the first 3 minutes and in 10 second intervals for the last 2 minutes. Ca^2+ signals of ligands were determined similarly.
(§4) The fluorescence data of the 18 to 36 second time interval were used to determine agonist activity.
(§5) Regarding the FLIPR assay, HEK293 cells were transferred to 96-well microtiter plates 24 hours after transient transfection. […] Compounds to be analyzed, e.g., S1P and DHS1 P, were added at this stage. Fluorescence was measured by means of a fluorometric imaging plate reader in 3 second intervals for the first 3 minutes and in 10 second intervals for the last 2 minutes. The fluorescence data of the 18 to 36 second time interval were used to determine agonist activity. […]

HEK293 cells = assay: Ca2+ release in HEK293 cells; format: cell-based, human; conditions: for sensitivity of induced Ca2+ release to pertussis toxin: signal runs via Gαi-type G proteins
Method: HEK293 cells were transferred to 96-well microtiter plates 24 hours after transient transfection. The cell density was 80,000 cells per well. The microtiter plates were coated with poly-D-lysine. The cells were kept in medium containing 1% (v/v) FCS (fetal calf serum) for 18 to 24 hours. After trypsinization, the cells were suspended in DMEM (Dulbecco's modified Eagle's medium) that also contained 25 mM HEPES (N-2-hydroxyethylpiperazine-N′-2-ethanesulfonic acid) pH 7.0, 1% (v/v) FCS, […] and 4 μM dye Fluo4 (fluorescent calcium indicator from Molecular Dynamics), and then incubated at 37° C. with 5% (v/v) CO2 for 1 hour. The cells were then washed 3 times with PBS (phosphate-buffered saline) containing 1 mM MgCl2, 1 mM EDTA and 0.4 mg/ml FAF-BSA (fatty acid-free bovine serum albumin). After the last washing step, the volume was 100 ,μl per […]. The compounds to be analyzed, i.e., S1P, DHS1P, suramin, and compounds from the lipid library, were present as 2 mM stock solutions in DMSO (dimethyl sulfoxide). These stock solutions were diluted 1:500 with the PBS solution containing 1 mM MgCl2, 1 mM EDTA and 0.4 mg/ml FAF-BSA. Lipids were present in the form of triple-concentrated 900 μM solutions prior to the assay. Suramin (Sigma) was prepared in the form of a triple-concentrated 900 μM solution in PBS containing 1 mM MgCl2, 1 EDTA, and 0.4 mg/ml FAF-BSA.
as §3, §4
Regarding the FLIPR assay, HEK293 cells were transferred to 96-well microtiter plates 24 hours after transient transfection. The cell density was 80,000 cells per well. The microtiter plates were coated with poly-D-lysine. The cells were kept in medium containing 1% (v/v) FCS (fetal calf serum) for 18 to 24 hours. […] Compounds to be analyzed, e.g., S1P and DHS1 P, were added at this stage. Fluorescence was measured by means of a fluorometric imaging plate reader in 3 second intervals for the first 3 minutes and in 10 second intervals for the last 2 minutes. The fluorescence data of the 18 to 36 second time interval were used to determine agonist activity. The reader itself equalizes internally the zero values.

hGPR 6 = hGPR 6 (Homo sapiens, UniProt P46095); assay: Ca2+ FLIPR assay in HEK293 cells transiently transfected with hGPR 6; format: cell-based
Sequence of hGPR 6 (P46095 whole entry): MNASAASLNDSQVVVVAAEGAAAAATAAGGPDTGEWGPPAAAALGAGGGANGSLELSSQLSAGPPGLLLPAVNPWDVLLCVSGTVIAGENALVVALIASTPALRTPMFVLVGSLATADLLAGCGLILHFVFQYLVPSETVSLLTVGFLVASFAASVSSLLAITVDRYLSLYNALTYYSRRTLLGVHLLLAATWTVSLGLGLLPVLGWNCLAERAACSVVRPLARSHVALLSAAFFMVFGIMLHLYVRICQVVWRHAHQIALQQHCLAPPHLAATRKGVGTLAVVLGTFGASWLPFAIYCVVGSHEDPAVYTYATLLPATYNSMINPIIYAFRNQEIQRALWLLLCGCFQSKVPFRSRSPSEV
Method: as §1, §2, §3, §4, §5

hGPR 12 = biological target: T1, hGPR 12 (Homo sapiens, UniProt P47775); assay: Ca2+ FLIPR assay in HEK293 cells transiently transfected with hGPR 12; format: cell-based
T1 sequence (P47775 1-334): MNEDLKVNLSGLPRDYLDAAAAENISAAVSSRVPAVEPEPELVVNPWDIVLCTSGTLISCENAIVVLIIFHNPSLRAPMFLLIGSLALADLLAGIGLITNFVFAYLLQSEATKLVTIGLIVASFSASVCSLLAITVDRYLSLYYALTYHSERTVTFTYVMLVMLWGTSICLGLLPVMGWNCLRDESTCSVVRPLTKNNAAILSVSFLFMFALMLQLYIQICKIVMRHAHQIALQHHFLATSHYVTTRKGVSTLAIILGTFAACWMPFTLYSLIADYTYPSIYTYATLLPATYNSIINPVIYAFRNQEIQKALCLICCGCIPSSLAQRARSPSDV
Method: as §1, §2, §3, §4, §5

Sequence of hGPR 3 (P46089 whole entry): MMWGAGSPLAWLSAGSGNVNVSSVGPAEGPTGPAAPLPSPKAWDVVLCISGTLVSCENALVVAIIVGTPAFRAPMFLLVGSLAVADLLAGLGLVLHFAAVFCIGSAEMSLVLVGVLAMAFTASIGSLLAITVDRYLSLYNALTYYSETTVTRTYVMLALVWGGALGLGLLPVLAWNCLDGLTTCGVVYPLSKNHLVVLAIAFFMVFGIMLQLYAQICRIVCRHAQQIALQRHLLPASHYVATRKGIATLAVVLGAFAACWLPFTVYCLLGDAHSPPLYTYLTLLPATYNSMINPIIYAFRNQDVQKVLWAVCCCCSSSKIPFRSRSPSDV

Structure (SMILES): CCCCCCCCCCCCC/C=C/[C@@H](O)[C@@H](N)COP(=O)(O)O [S1P, sphingosine 1-phosphate]
- identification as ligand (agonist activity, Ca2+ signal) (hGPR 3): physiological ligands
- pEC50 (hGPR 3; Ca2+ FLIPR): > 7.00
- Ca2+ release (HEK293 cells): cause Ca^2+release
- sensitivity of induced Ca2+ release to pertussis toxin (HEK293 cells): pertussis toxin-sensitive
- identification as ligand (agonist activity, Ca2+ signal) (hGPR 6): physiological ligands
- pEC50 (hGPR 6; Ca2+ FLIPR): > 7.00
- identification as ligand (agonist activity, Ca2+ signal) (hGPR 12): physiological ligands
- pEC50 (hGPR 12; Ca2+ FLIPR): > 7.00

Structure (SMILES): CCCCCCCCCCCCCCC[C@@H](O)[C@@H](N)COP(=O)(O)O [DHS1P, dihydrosphingosine 1-phosphate]
- identification as ligand (agonist activity, Ca2+ signal) (hGPR 3): physiological ligands
- Ca2+ release (HEK293 cells): cause Ca^2+release
- sensitivity of induced Ca2+ release to pertussis toxin (HEK293 cells): pertussis toxin-sensitive
- identification as ligand (agonist activity, Ca2+ signal) (hGPR 6): physiological ligands
- identification as ligand (agonist activity, Ca2+ signal) (hGPR 12): physiological ligands
